Article PMC9019904, “AD Informer Set: Chemical tools to facilitate Alzheimer's disease drug discovery” (Alzheimer's & Dementia : Translational Research & Clinical …, 2022)

What was measured:
[1] = system: BV2 (mouse microglia) cell line; assay: pHrodo-myelin phagocytosis/cell viability high content imaging assay: viability (cell count, nuclear area, nuclear intensity); details: for 1. Cell count (% control) / 2. Nuclear Area (% Control) / 3. Nuclear DNA Intensity (% control): 48 hours treatment
Method in brief: (§1)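 Cells adhered overnight, then were exposed to compounds at a single 10 μM for 48 h in total, with pHrodo-myelin added for the last 20 h. High-content imaging gave cell count per well as the main viability measure plus mean nuclear intensity per cell. Duplicate wells were averaged and expressed as % of untreated control.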

[2] = system: HMC3 (human microglia) cell line; assay: as above; details: for 1. Cell count (% control) / 2. Nuclear Area (% Control) / 3. Nuclear DNA Intensity (% control): 48 hours treatment
Method in brief: as §1

[3] = system: BV2 (mouse microglia) cell line; assay: pHrodo-myelin phagocytosis/cell viability high content imaging assay: phagocytosis signal; format: cell-based
Method in brief: (§2)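 Imaging at high content captured pHrodo-myelin uptake about 22 hours after its addition, alongside a viability read-out from the same cells. Three measurements were derived, with intensity increase marking early apoptosis and decrease marking later apoptosis.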

[4] = system: HMC3 (human microglia) cell line; assay: as above; format: cell-based
Method in brief: as §2

[5] = BV2, compound 10 uM, pHrodo-myelin
[6] = HMC3, compound 10 uM, pHrodo-myelin
[7] = BV2 cells, 10 uM compound, 48 hours treatment, pHrodo-myelin final 20 hours
[8] = HMC3 cells, 10 uM compound, 48 hours treatment, pHrodo-myelin final 20 hours

| SMILES | 1. Cell count (% control) ([1]; BV2, compound 10 uM) | 2. Nuclear Area (% Control) ([1]; BV2, compound 10 uM) | 3. Nuclear DNA Intensity (% control) ([1]; BV2, compound 10 uM) | 1. Cell count (% control) ([2]; HMC3, compound 10 uM) | 2. Nuclear Area (% Control) ([2]; HMC3, compound 10 uM) | 3. Nuclear DNA Intensity (% control) ([2]; HMC3, compound 10 uM) | 4. Phagocytosis (% control) [3, 5] [% control] | 4. Phagocytosis (% control) [4, 6] [% control] | 1. Cell count (% control) ([1]; BV2 cells, 10 uM compound) | 2. Nuclear Area (% Control) ([1]; BV2 cells, 10 uM compound) | 3. Nuclear DNA Intensity (% control) ([1]; BV2 cells, 10 uM compound) | 1. Cell count (% control) ([2]; HMC3 cells, 10 uM compound) | 2. Nuclear Area (% Control) ([2]; HMC3 cells, 10 uM compound) | 3. Nuclear DNA Intensity (% control) ([2]; HMC3 cells, 10 uM compound) | 4. Phagocytosis (% control) [3, 7] [% control] | 4. Phagocytosis (% control) [4, 8] [% control] | cytotoxicity in mouse microglial cells (cell count < 70% control) [1] | cytotoxicity in human microglial cells (cell count < 70% control) [2] |
| --- | --- | --- | --- | --- | --- | --- | --- | --- | --- | --- | --- | --- | --- | --- | --- | --- | --- | --- |
| O=C(O)CCCc1nc(-c2ccc(Cl)c(Cl)c2)c(-c2ccccc2)o1 [UNC8366A] | 118.0 | 106.9 | 102.3 | 151.8 | 102.0 | 90.3 | 161.9 | 67.3 |  |  |  |  |  |  |  |  |  |  |
| Oc1cc(CNC(=S)/C=C/c2cc(O)c(O)c(Br)c2)cc(O)c1O [UNC10302699A] | 17.7 | 116.2 | 76.1 | 53.7 | 113.5 | 119.4 | 235.2 | 92.5 |  |  |  |  |  |  |  |  |  |  |
| Cc1ccc(S(=O)(=O)O)cc1.Nc1n[nH]cc1-c1cc(Cl)ccc1Oc1cc(F)c(S(=O)(=O)Nc2cscn2)cc1Cl [UNC10303160A] | 121.5 | 103.1 | 99.3 | 135.7 | 95.0 | 100.7 | 124.9 | 74.7 |  |  |  |  |  |  |  |  |  |  |
| CCn1cc(C(=O)O)c(=O)c2c(N)c(F)c(NC3CCCCC3)cc21 [UNC10302843A] | 99.6 | 97.0 | 118.4 | 0.0 | 0.0 | 0.0 | 121.2 | 67.4 |  |  |  |  |  |  |  |  |  |  |
| COc1ccc(CCN2CCN(CCCc3ccccc3)CC2)cc1OC.Cl.Cl [UNC10302848A] |  |  |  |  |  |  |  |  | 91.1 | 105.5 | 98.2 | 84.9 | 99.2 | 95.9 | 120.8 | 82.7 |  |  |
| Clc1ccccc1C(c1ccccc1)(c1ccccc1)n1ccnc1 [UNC10100375A] | 67.3 | 102.8 | 90.2 | 105.9 | 98.8 | 95.6 | 144.4 | 70.1 |  |  |  |  |  |  |  |  |  |  |
| CNC(=O)c1cccc(-c2ccc3c(N4CCOC[C@@H]4C)nc(N4CCOC[C@@H]4C)nc3n2)c1 [UNC10302837A] | 47.4 | 94.2 | 117.6 | 99.5 | 83.5 | 103.3 | 328.3 | 149.5 |  |  |  |  |  |  |  |  |  |  |
| Cc1cc(NC(=O)Nc2ccc(F)c(F)c2)n(-c2ccccc2)n1 [UNC10302846A] |  |  |  |  |  |  |  |  | 131.4 | 104.7 | 107.1 | 127.2 | 103.4 | 94.5 | 158.9 | 71.8 |  |  |
| O=C(CCl)c1ccccc1Nc1cccc(C(F)(F)F)c1 [UNC10302842A] | 92.3 | 108.5 | 96.7 | 87.6 | 81.7 | 149.6 | 183.6 | 56.6 |  |  |  |  |  |  |  |  |  |  |
| CN(C)c1ccc2c(c1)Sc1cc(N(C)C)ccc1N2.CS(=O)(=O)O.CS(=O)(=O)O [UNC10303097A, reference compound] |  |  |  |  |  |  |  |  | 14.2 | 111.0 | 58.9 | 59.1 | 75.8 | 120.7 | 102.3 | 6.7 | manifested toxicity in both microglial cell lines | manifested toxicity in both microglial cell lines |
| CN(C)CC1CCOC1(c1ccccc1)c1ccccc1.Cl (centres unmarked) [UNC10303096A] |  |  |  |  |  |  |  |  | 103.1 | 105.3 | 104.2 | 129.8 | 100.5 | 94.9 | 256.6 | 111.9 |  |  |
| COc1cccc2c(NCc3ccccc3)nc(-n3c(N)nc4ccccc43)nc12 [UNC10302841A] |  |  |  |  |  |  |  |  | 33.6 | 129.2 | 62.4 | 55.4 | 78.1 | 92.0 | 0.00115 | 0.0406 |  |  |
| CCC(=O)N1CCC(NC(=O)Nc2ccc(OC(F)(F)F)cc2)CC1 [UNC10302681A] |  |  |  |  |  |  |  |  | 105.6 | 99.0 | 108.5 | 147.2 | 103.6 | 94.9 | 102.7 | 96.8 |  |  |
| CC(=O)N1CCC(NC(=O)NC23CC4CC(CC(C4)C2)C3)CC1 [UNC10302683A] |  |  |  |  |  |  |  |  | 126.3 | 103.6 | 107.4 | 168.7 | 103.9 | 92.0 | 155.4 | 72.2 |  |  |
| C=C1C(=O)[C@]23[C@H](O)[C@H]1CC[C@H]2[C@@]12CO[C@]3(O)[C@@H](O)[C@@H]1C(C)(C)CC[C@@H]2O [UNC10302873A] | 12.1 | 120.3 | 80.8 | 42.7 | 59.1 | 208.5 | 153.4 | 0.0307 |  |  |  |  |  |  |  |  |  |  |
